Values quoted from earlier work as cited in US5140036A, “1,3,5-trisubstituted-1,2,4-triazole compounds for treatment of circulatory disorders” (priority 1990, dated 1992).

How the values were obtained:
[1] = system: angiotensin II; conditions: series of binding experiments, functional assays and in vivo tests
[2] = system: angiotensin II at its receptors; conditions: commercially-available peptidic angiotensin II antagonists

SMILES | angiotensin II antagonist activity [1] | residual agonist activity [2]
CCCCc1nc(Cl)c(CC(=O)O)n1Cc1ccccc1[N+](=O)[O-] [2-butyl-4-chloro-1-(2-nitrobenzyl)imidazole-5-acetic acid] | specific competitive angiotensin II antagonist activity | 
CCCCc1nc(Cl)c(CC(=O)O)n1Cc1ccccc1Cl [2-n-butyl-4-chloro-1-(2-chlorobenzyl)imidazole-5-acetic acid] | specific competitive angiotensin II antagonist activity | 
CNCC(=O)N[C@@H](CCCN=C(N)N)C(=O)N[C@H](C(=O)N[C@@H](Cc1ccc(O)cc1)C(=O)N[C@H](C(=O)N[C@@H](Cc1cnc[nH]1)C(=O)N1CCC[C@H]1C(=O)N[C@@H](C)C(=O)O)C(C)C)C(C)C [Saralasin] |  | significant residual agonist activity
